The values that follow come from patent publication US9707253B2, “High-loading, controlled-release magnesium oral dosage forms and methods for making and using same” (Pharmalyte Solutions, LLC, priority 2008, dated 2017).

Where “and” joins values, the source holds several entries; their conditions need not be identical. Equal entries are not always repeated.

The conditions of series [1]: oral magnesium salts, background statement; cited from earlier work.
For series [2] the following is noted: normal: minimum 33.9 mEq/IU; cited from earlier work.
For series [3] the following is noted: healthy subjects, approximately 21 mEq, urinary excretion; cited from earlier work.
Series [4] in a line: Absolute bioavailability study: serum magnesium pharmacokinetics. The note with it: fasted; for AUC0-72 / AUC0-t / Cmax: mean (SD); for Tmax: median (range). An excerpt:
(§1) A study has been conducted to investigate magnesium L-lactate dihydrate extended release caplets for management of magnesium-deficient patients who have experienced electrolyte imbalance due to iatrogenic or disease cause such as episodic migraine headaches. […] A study to compare the absolute bioavailability of an oral magnesium formulation compared to an IV administered magnesium sulfate including both serum and urine pharmacokinetic parameters has never been reported in the scientific literature.
(§2) Three treatment regimens (Treatments A, B, and C) were employed in the study.
(§3) Urine and blood samples were collected for pharmacokinetic (PK) analysis of urinary and serum magnesium concentrations. A total of 29 urine samples for each subject were collected continuously throughout the study for determination of fractional and daily urine magnesium concentrations, and 33 blood samples were collected from each subject for determination of serum magnesium concentrations at each time point during the study.
(§4) The PK analysis population included 29 subjects for Treatment A, 29 subjects for Treatment B, and 31 subjects for Treatment C.
(§5) The absolute bioavailability of magnesium was evaluated by comparing serum magnesium exposure (AUC0-72) or urinary magnesium excretion (Ae0-72) after oral versus IV administration.

Series [5] is described as follows: Absolute bioavailability study: urinary magnesium pharmacokinetics. The settings on record: baseline-adjusted, Treatment B: IV infusion 20 mEq over 4 hours, fasted.
Description: as §1, §2, §3, §4, §5

The mark [6] stands for this setting: baseline-adjusted, Treatment B: IV infusion 20 mEq over 4 hours.
Where [7] appears, read: observed, Treatment B: IV infusion 20 mEq over 4 hours.

For the compound `[Cl-].[Cl-].[Mg+2]` [magnesium chloride], the bioavailability entry in series [1] is listed as “about 20%”.

For `CC(O)C(=O)[O-].CC(O)C(=O)[O-].[Mg+2]` (stereo not drawn) [magnesium lactate, 2-hydroxypropanoic acid magnesium salt], in series [2], the “effective in repleting intracellular magnesium levels to normal ranges” value was 100%.

As for `[O]=[Mg]` [magnesium oxide], in series [1], the bioavailability entry is recorded as “about 2%”. The fractional absorption average in series [3] is 4%.

Take `O=S(=O)([O-])[O-].[Mg+2]` [magnesium sulfate]: in series [4] (setting [6]), the AUC0-72 is listed as 76.2 (37.9) h · μg/mL, the AUC0-t is on record as 72.8 (35.4) h · μg/mL, the Cmax is 6.79 (1.46) μg/mL and the Tmax is given as 4.00 (2.00-6.00) h. Besides, in series [4] (setting [7]), the AUC0-72 is 1390 (121) h · μg/mL, the AUC0-t was 1390 (121) h · μg/mL and the Cmax was 25.7 (1.62) μg/mL. The Tmax in series [4] (observed, Treatment B: single IV infusion 20 mEq over 4 hours) was 4.00 (2.00-6.00) h. Moreover, the CLR0-72 in series [5] (median (range)) is on record as 3.57 (1.44-35.6) L/h. Also, in series [5] (urine, mean (SD)), the Ae0-72 is listed as 225 (49.5) mg; the Rmax is 20.5 (4.29) mg/h; the fe0-72 is 92.7% and 92.7 (20.4) %. The “Tmax,rate” value in series [5] (urine, median (range)) is given as 5.00 (3.00-9.00) h.

Consider magnesium gluconate, for which, in series [1], the bioavailability result is recorded as “about 20%”.
